Measured values reported in PubChem BioAssay (NCI).
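Grown in 96-well plates, cells were treated for 48 hours with each compound at five concentrations. Insufficient inhibition: endpoint recorded as highest concentration tested. The concentration for full growth arrest is given as TGI.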

How the values were obtained:
Test in all cases: NCI anticancer screen, dose series, 48 h
NCI/ADR-RES ovarian = test system: NCI/ADR-RES ovarian
NCI-H460 lung = test system: NCI-H460 lung
CCRF-CEM leukemia = test system: CCRF-CEM leukemia
IGROV1 ovarian = test system: IGROV1 ovarian
SK-MEL-2 melanoma = test system: SK-MEL-2 melanoma
HCC-2998 colon = test system: HCC-2998 colon
HL-60(TB) leukemia = test system: HL-60(TB) leukemia
MDA-MB-435 = test system: MDA-MB-435
NCI-H226 lung = test system: NCI-H226 lung
MALME-3M melanoma = test system: MALME-3M melanoma

Structure (SMILES): O=C(CCC(=O)c1ccc(Cl)cc1)NO
- TGI (NCI/ADR-RES ovarian): > 100 µM
- TGI (NCI-H460 lung): > 100 µM
- TGI (CCRF-CEM leukemia): > 100 µM
- TGI (IGROV1 ovarian): > 100 µM
- TGI (SK-MEL-2 melanoma): > 100 µM
- TGI (HCC-2998 colon): > 100 µM
- TGI (HL-60(TB) leukemia): > 100 µM
- TGI (MDA-MB-435): > 100 µM
- TGI (NCI-H226 lung): > 100 µM

Structure (SMILES): CCOC(=O)Nn1c(C)nnc1-c1ccccc1
- TGI (MALME-3M melanoma): > 100 µM
- TGI (NCI/ADR-RES ovarian): > 100 µM
- TGI (NCI-H460 lung): > 100 µM
- TGI (CCRF-CEM leukemia): > 100 µM
- TGI (IGROV1 ovarian): > 100 µM
- TGI (SK-MEL-2 melanoma): > 100 µM
- TGI (HCC-2998 colon): > 100 µM
- TGI (MDA-MB-435): > 100 µM
- TGI (NCI-H226 lung): > 100 µM

Structure (SMILES): COc1cc([C@@H]2c3cc4c(cc3[C@@H](Nc3ccc([N+](=O)[O-])cc3C(=O)c3ccccc3)[C@H]3COC(=O)[C@H]23)OCO4)cc(OC)c1OC
- TGI (MALME-3M melanoma): > 100 µM
- TGI (NCI/ADR-RES ovarian): > 100 µM
- TGI (CCRF-CEM leukemia): > 100 µM
- TGI (IGROV1 ovarian): > 100 µM
- TGI (SK-MEL-2 melanoma): > 100 µM
- TGI (HCC-2998 colon): > 100 µM
- TGI (MDA-MB-435): 0.319 µM
- TGI (NCI-H226 lung): > 100 µM

Structure (SMILES): CCOC(=O)C(NC(C)=O)(Nc1ccc(F)cc1)C(F)(F)F (centres undefined)
- TGI (NCI/ADR-RES ovarian): > 100 µM
- TGI (NCI-H460 lung): > 100 µM
- TGI (CCRF-CEM leukemia): > 100 µM
- TGI (IGROV1 ovarian): > 100 µM
- TGI (SK-MEL-2 melanoma): > 100 µM
- TGI (HCC-2998 colon): > 100 µM
- TGI (HL-60(TB) leukemia): > 100 µM
- TGI (MDA-MB-435): > 100 µM

Structure (SMILES): FC(F)(F)c1cc(Cl)cnc1N/N=C(/c1ccccc1)c1ccccn1
- TGI (NCI/ADR-RES ovarian): 6.76 µM
- TGI (NCI-H460 lung): 15 µM
- TGI (CCRF-CEM leukemia): 4.85 µM
- TGI (IGROV1 ovarian): 5.59 µM
- TGI (SK-MEL-2 melanoma): 20.1 µM
- TGI (HCC-2998 colon): > 100 µM
- TGI (MDA-MB-435): > 100 µM
- TGI (NCI-H226 lung): 8.03 µM

Structure (SMILES): Cc1cc(=O)[nH]c(NN2C(Cl)C(=O)C2c2ccccc2O)n1 (centres undefined)
- TGI (NCI/ADR-RES ovarian): 40.4 µM
- TGI (NCI-H460 lung): > 100 µM
- TGI (CCRF-CEM leukemia): > 100 µM
- TGI (IGROV1 ovarian): > 100 µM
- TGI (SK-MEL-2 melanoma): > 100 µM
- TGI (HCC-2998 colon): > 100 µM
- TGI (HL-60(TB) leukemia): > 100 µM
- TGI (MDA-MB-435): > 100 µM
- TGI (NCI-H226 lung): 9.16 µM

Structure (SMILES): Cc1ccccc1-n1c(=O)c2ncn(CCCl)c2n(-c2ccccc2C)c1=S
- TGI (NCI/ADR-RES ovarian): > 100 µM
- TGI (NCI-H460 lung): > 100 µM
- TGI (CCRF-CEM leukemia): > 100 µM
- TGI (IGROV1 ovarian): > 100 µM
- TGI (SK-MEL-2 melanoma): > 100 µM
- TGI (HCC-2998 colon): > 100 µM
- TGI (HL-60(TB) leukemia): > 100 µM
- TGI (MDA-MB-435): > 100 µM
- TGI (NCI-H226 lung): > 100 µM

Structure (SMILES): CCC1(O)CC2CC(=O)OC2C1O (centres undefined)
- TGI (MALME-3M melanoma): > 100 µM
- TGI (NCI/ADR-RES ovarian): > 100 µM
- TGI (NCI-H460 lung): > 100 µM
- TGI (CCRF-CEM leukemia): 25.7 µM
- TGI (IGROV1 ovarian): > 100 µM
- TGI (SK-MEL-2 melanoma): > 100 µM
- TGI (HCC-2998 colon): > 100 µM
- TGI (MDA-MB-435): > 100 µM
- TGI (NCI-H226 lung): > 100 µM

Structure (SMILES): CCc1ccc(CCN2CCCCC2)nc1
- TGI (MALME-3M melanoma): > 100 µM
- TGI (NCI/ADR-RES ovarian): > 100 µM
- TGI (NCI-H460 lung): > 100 µM
- TGI (CCRF-CEM leukemia): > 100 µM
- TGI (IGROV1 ovarian): > 100 µM
- TGI (SK-MEL-2 melanoma): > 100 µM
- TGI (HCC-2998 colon): > 100 µM
- TGI (MDA-MB-435): > 100 µM
- TGI (NCI-H226 lung): > 100 µM

Structure (SMILES): COC(=O)c1cc2c(n1S(=O)(=O)c1ccc(C)cc1)C(=O)C(=O)c1[nH]cc(C(=O)OCc3ccccc3)c1-2
- TGI (MALME-3M melanoma): 0.115 µM
- TGI (NCI/ADR-RES ovarian): 5.26 µM
- TGI (NCI-H460 lung): 2.83 µM
- TGI (CCRF-CEM leukemia): 1.05 µM
- TGI (IGROV1 ovarian): 0.559 µM
- TGI (SK-MEL-2 melanoma): 0.358 µM
- TGI (HCC-2998 colon): 0.634 µM
- TGI (MDA-MB-435): 0.0301 µM
- TGI (NCI-H226 lung): 0.462 µM

Structure (SMILES): Oc1cc2c3c(c1)c1cc4c(cc1c[n+]3CC2)OCO4
- TGI (MALME-3M melanoma): 7.85 µM
- TGI (NCI-H460 lung): > 23.9 µM
- TGI (CCRF-CEM leukemia): > 45.8 µM
- TGI (IGROV1 ovarian): > 39.8 µM
- TGI (SK-MEL-2 melanoma): > 84.5 µM
- TGI (HCC-2998 colon): 25.9 µM
- TGI (HL-60(TB) leukemia): > 27.3 µM
- TGI (MDA-MB-435): > 55 µM
- TGI (NCI-H226 lung): 17.2 µM

Structure (SMILES): Cc1cn(C2CC(n3cc(Cn4cc(I)c(=O)[nH]c4=O)nn3)C(CO)O2)c(=O)[nH]c1=O (centres undefined)
- TGI (NCI/ADR-RES ovarian): > 100 µM
- TGI (CCRF-CEM leukemia): > 100 µM
- TGI (SK-MEL-2 melanoma): > 100 µM
- TGI (HCC-2998 colon): > 100 µM
- TGI (MDA-MB-435): > 100 µM
- TGI (NCI-H226 lung): > 100 µM

Structure (SMILES): COc1ccc(N2C(=O)C3c4[nH]c5ccccc5c4C4CCC(C(C)(C)C)CC4C3C2=O)c(C)c1 (centres undefined)
- TGI (NCI/ADR-RES ovarian): > 100 µM
- TGI (NCI-H460 lung): > 100 µM
- TGI (CCRF-CEM leukemia): > 100 µM
- TGI (IGROV1 ovarian): > 100 µM
- TGI (HCC-2998 colon): > 100 µM
- TGI (HL-60(TB) leukemia): > 100 µM
- TGI (MDA-MB-435): > 100 µM
- TGI (NCI-H226 lung): > 100 µM

Structure (SMILES): COc1cc(/C=C2\S/C(=N/Nc3nc(-c4ccc(Br)cc4)cs3)NC2=O)cc(OC)c1OC
- TGI (NCI/ADR-RES ovarian): 35.1 µM
- TGI (NCI-H460 lung): 37.4 µM
- TGI (CCRF-CEM leukemia): 10.3 µM
- TGI (IGROV1 ovarian): 37 µM
- TGI (SK-MEL-2 melanoma): 35.8 µM
- TGI (HCC-2998 colon): 32.5 µM
- TGI (MDA-MB-435): 46.3 µM
- TGI (NCI-H226 lung): 11.7 µM

Structure (SMILES): COc1ccc(/C=C2\CCC(C)C3=C2NC(=S)NC3c2ccc(OC)c(OC)c2)cc1OC (centres undefined)
- TGI (NCI/ADR-RES ovarian): > 100 µM
- TGI (NCI-H460 lung): > 100 µM
- TGI (IGROV1 ovarian): > 31.6 µM
- TGI (SK-MEL-2 melanoma): > 31.6 µM
- TGI (HCC-2998 colon): > 100 µM
- TGI (HL-60(TB) leukemia): > 31.6 µM
- TGI (MDA-MB-435): > 31.6 µM
- TGI (NCI-H226 lung): > 100 µM

Structure (SMILES): O=[N+]([O-])/C(C(Cl)=C(Cl)Cl)=C(\SCc1ccccc1)N1CCCCC1
- TGI (MALME-3M melanoma): 27.1 µM
- TGI (NCI-H460 lung): 78 µM
- TGI (CCRF-CEM leukemia): 30.5 µM
- TGI (IGROV1 ovarian): 57.1 µM
- TGI (SK-MEL-2 melanoma): 55 µM
- TGI (HCC-2998 colon): 45.7 µM
- TGI (HL-60(TB) leukemia): 29.6 µM
- TGI (MDA-MB-435): 35.5 µM
- TGI (NCI-H226 lung): 53.2 µM

Structure (SMILES): CCC[C@@H](O)C[C@@H]1CCC[C@H](C[C@@H](O)CC)N1C
- TGI (NCI/ADR-RES ovarian): > 100 µM
- TGI (CCRF-CEM leukemia): > 100 µM
- TGI (IGROV1 ovarian): > 100 µM
- TGI (SK-MEL-2 melanoma): > 100 µM
- TGI (HCC-2998 colon): > 100 µM
- TGI (HL-60(TB) leukemia): > 100 µM
- TGI (MDA-MB-435): > 100 µM
- TGI (NCI-H226 lung): > 100 µM

Structure (SMILES): Cc1cn(C2CC(N(O)C(N)=O)C(CO)O2)c(=O)[nH]c1=O (centres undefined)
- TGI (MALME-3M melanoma): > 100 µM
- TGI (NCI/ADR-RES ovarian): > 100 µM
- TGI (SK-MEL-2 melanoma): > 100 µM
- TGI (MDA-MB-435): > 100 µM

Structure (SMILES): COC(=O)[C@H](Cc1c[nH]c2ccccc12)NP(=O)(O)OCC1C=CC(n2cc(C)c(=O)[nH]c2=O)O1 (some centres undefined)
- TGI (NCI/ADR-RES ovarian): > 100 µM
- TGI (CCRF-CEM leukemia): > 100 µM
- TGI (IGROV1 ovarian): > 100 µM
- TGI (SK-MEL-2 melanoma): > 100 µM
- TGI (HCC-2998 colon): > 100 µM
- TGI (HL-60(TB) leukemia): > 100 µM
- TGI (MDA-MB-435): > 100 µM
- TGI (NCI-H226 lung): > 100 µM

Structure (SMILES): CC1=CC2C(O1)C1C(=O)C=CC(=O)C1=CC2[N+](=O)[O-] (centres undefined)
- TGI (NCI/ADR-RES ovarian): > 77.9 µM
- TGI (NCI-H460 lung): 36.4 µM
- TGI (CCRF-CEM leukemia): > 23.7 µM
- TGI (IGROV1 ovarian): 44.7 µM
- TGI (SK-MEL-2 melanoma): 57.2 µM
- TGI (HCC-2998 colon): > 59.7 µM
- TGI (HL-60(TB) leukemia): > 22.5 µM
- TGI (MDA-MB-435): 26.4 µM
- TGI (NCI-H226 lung): > 100 µM
